Source: patent publication US10280150B2 (FORMA TM2, Inc., priority 2014, dated 2019)

Key:
[1] = molecular target: IDH1-R132C recombinant protein (Homo sapiens (Human), UniProt O75874, R132C); assay: IDH1-R132C enzymatic assay (inhibition of NADPH consumption, diaphorase/resazurin readout); assay type: biochemical; conditions: read-out: Enzyme IDH1 R132C IC50 (Range)
Description: (§1) Assays were performed in a 384-well black plate. An aliquot of 250 nL of compound was incubated with 10 μL of 30 nM IDH1-R132H or 10 nM IDH1-R132C recombinant protein in assay buffer (50 mM Tris pH=7.5, 150 mM NaCl, 5 mM MgCl2, 0.1% (w/v) Bovine Serum Albumin, and 0.01% Triton X-100) in each well at 25° C. for 15 minutes. After the plate was centrifuged briefly, an aliquot of 10 μL of 2 mM α-ketoglutarate and 20 μM NADPH solution prepared in assay buffer was then added to each well and the reaction was maintained at 25° C. for 45 minutes. An aliquot of 10 μL of diaphorase solution (0.15 U/mL diaphorase and 30 µM Resazurin in assay buffer) was added to each well. The plate was maintained at 25° C. for 15 minutes and then read on a plate reader with excitation and emission wavelengths at 535 nm and 590 nm, respectively. The IC50 of a given compound was calculated by fitting the dose response curve of inhibition of NADPH consumption at a given concentration with the four parameter logistic equation.

[2] = molecular target: IDH1-R132H recombinant protein (Homo sapiens (Human), UniProt O75874, R132H); assay: IDH1-R132H enzymatic assay (inhibition of NADPH consumption, diaphorase/resazurin readout); assay type: biochemical; conditions: read-out: Enzyme IDH1 R132H IC50 (Range)
IDH1-R132H recombinant protein, sequence (O75874 whole entry R132H): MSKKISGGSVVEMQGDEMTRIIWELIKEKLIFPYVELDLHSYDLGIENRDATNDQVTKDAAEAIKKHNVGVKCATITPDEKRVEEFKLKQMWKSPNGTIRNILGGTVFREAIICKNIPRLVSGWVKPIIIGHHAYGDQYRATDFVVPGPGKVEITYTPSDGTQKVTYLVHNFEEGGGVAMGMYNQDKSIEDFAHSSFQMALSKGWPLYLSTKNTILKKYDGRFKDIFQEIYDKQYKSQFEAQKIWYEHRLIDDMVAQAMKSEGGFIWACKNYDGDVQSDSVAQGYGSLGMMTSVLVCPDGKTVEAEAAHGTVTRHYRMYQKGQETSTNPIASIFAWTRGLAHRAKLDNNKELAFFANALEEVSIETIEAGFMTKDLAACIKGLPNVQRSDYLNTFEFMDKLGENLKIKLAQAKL
Description: as §1

IDH1-R132C recombinant protein, sequence (O75874 whole entry R132C): as the sequence (O75874 whole entry R132H) above, with H132C counted along it

| SMILES | IC50 [1] | IC50 [2] |
| --- | --- | --- |
| C[C@H](Nc1nccc(N(CC2CC2)S(C)(=O)=O)n1)c1cc2cc(Cl)ccc2[nH]c1=O [Compound I-2, (S)—N-(2-((1-(6-Chloro-2-oxo-1,2-dihydroquinolin-3-yl)ethyl)amino)pyrimidin-4-yl)-N-(cyclopropylmethyl)methanesulfonamide] | < 100 nM | < 100 nM |
| C[C@H](Nc1nccc(N(C2CCCOC2)S(C)(=O)=O)n1)c1cc2cc(Cl)ccc2[nH]c1=O (stereo partly drawn) [Compound I-3, N-(2-(((S)-1-(6-chloro-2-oxo-1,2-dihydroquinolin-3-yl)ethyl)amino)pyrimidin-4-yl)-N-(tetrahydro-2H-pyran-3-yl)methanesulfonamide] | 100 to 1000 nM | 100 to 1000 nM |
| CC(C)N(c1ccnc(N[C@@H](C)c2cc3cc(Cl)ccc3[nH]c2=O)n1)S(=O)(=O)c1cccnc1 [Compound I-4, (S)—N-(2-((1-(6-Chloro-2-oxo-1,2-dihydroquinolin-3-yl)ethyl)amino)pyrimidin-4-yl)-N-isopropylpyridine-3-sulfonamide] | < 100 nM | < 100 nM |
| CC(C)CS(=O)(=O)N(c1ccnc(N[C@@H](C)c2cc3cc(Cl)ccc3[nH]c2=O)n1)C(C)C [Compound I-5, (S)—N-(2-(1-(6-Chloro-2-oxo-1,2-dihydroquinolin-3-yl)ethylamino)pyrimidin-4-yl)-N-isopropyl-2-methylpropane-1-sulfonamide] | 100 to 1000 nM | < 100 nM |
| C[C@H](Nc1nccc(NC(C)(C)C)n1)c1cc2cc(Cl)ccc2[nH]c1=O [Compound I-7] | 1000 to 10000 nM | 100 to 1000 nM |
| CC(C)CN(c1ccnc(N[C@@H](C)c2cc3cc(Cl)ccc3[nH]c2=O)n1)S(C)(=O)=O [Compound I-8, (S)—N-(2-(1-(6-Chloro-2-oxo-1,2-dihydroquinolin-3-yl)ethylamino)pyrimidin-4-yl)-N-isobutylmethanesulfonamide] | < 100 nM | < 100 nM |
| CC(C)N(c1ccnc(N[C@@H](C)c2cc3cc(Cl)ccc3[nH]c2=O)n1)S(C)(=O)=O [Compound I-10, (S)—N-(2-(1-(6-Chloro-2-oxo-1,2-dihydroquinolin-3-yl)ethylamino)pyrimidin-4-yl)-N-isopropylmethanesulfonamide] | 100 to 1000 nM | < 100 nM |
| CC(C)N(c1ccnc(N[C@@H](C)c2cc3cc(Cl)ccc3[nH]c2=O)n1)S(=O)(=O)CC1CC1 [Compound I-11, (S)—N-(2-((1-(6-Chloro-2-oxo-1,2-dihydroquinolin-3-yl)ethyl)amino)pyrimidin-4-yl)-1-cyclopropyl-N-isopropylmethanesulfonamide] | < 100 nM | < 100 nM |
| C[C@H](Nc1nccc(N(C2CC2)S(C)(=O)=O)n1)c1cc2cc(Cl)ccc2[nH]c1=O [Compound I-14] | 1000 to 10000 nM | 100 to 1000 nM |
| CC(C)CS(=O)(=O)N(C)c1ccnc(N[C@@H](C)c2cc3cc(Cl)ccc3[nH]c2=O)n1 [Compound I-15] | 100 to 1000 nM | 100 to 1000 nM |
| C[C@H](Nc1nccc(N(CCC2CCOCC2)S(C)(=O)=O)n1)c1cc2cc(Cl)ccc2[nH]c1=O [Compound I-16] | 1000 to 10000 nM | 100 to 1000 nM |
| CC(C)N(c1ccnc(N[C@@H](C)c2cc3cc(Cl)ccc3[nH]c2=O)n1)S(=O)(=O)c1ccc2c(c1)oc(=O)n2C [Compound I-21] | 1000 to 10000 nM | 100 to 1000 nM |
| CC(C)CN(C(=O)C1CC1)c1ccnc(N[C@@H](C)c2cc3cc(Cl)ccc3[nH]c2=O)n1 [Compound I-35] | 1000 to 10000 nM | 100 to 1000 nM |
| COc1nc(N[C@@H](C)c2cc3cc(Cl)ccc3n(C)c2=O)ncc1C#N [Compound I-41, (S)-2-((1-(6-chloro-1-methyl-2-oxo-1,2-dihydroquinolin-3-yl)ethyl)amino)-4-methoxypyrimidine-5-carbonitrile] | 1000 to 10000 nM | 1000 to 10000 nM |
| C[C@@H](Nc1nccc(N2CCOC2=O)n1)c1cc2cc(Cl)ccc2[nH]c1=O [Compound I-45] | 1000 to 10000 nM | 1000 to 10000 nM |
| CC(C)[C@H]1COC(=O)N1c1ccnc(NCc2cc3cc(Cl)ccc3[nH]c2=O)n1 [Compound I-46, (S)-3-(2-(((6-Chloro-2-oxo-1,2-dihydroquinolin-3-yl)methyl)amino)pyrimidin-4-yl)-4-isopropyloxazolidin-2-one] | < 100 nM | < 100 nM |
| CC(Nc1nccc(N2CCOC2=O)n1)c1cc2cc(Cl)ccc2[nH]c1=O (stereo not shown) [Compound I-48] | 100 to 1000 nM | < 100 nM |
| Cc1nn(C)c(C)c1-c1ccnc(N[C@@H](C)c2cc3cc(Cl)ccc3[nH]c2=O)n1 [Compound I-84] | > 10000 nM | 1000 to 10000 nM |
| C[C@H](Nc1nccc(-c2c[nH]nc2C(F)(F)F)n1)c1cc2cc(Cl)ccc2[nH]c1=O [Compound I-86] | > 10000 nM | 1000 to 10000 nM |
| C[C@H](Nc1nccc(-c2coc3ccccc23)n1)c1cc2cc(Cl)ccc2[nH]c1=O [Compound I-89] | 1000 to 10000 nM | 1000 to 10000 nM |
| C[C@H](Nc1nccc(-c2cnn(C)c2)n1)c1cc2cc(Cl)ccc2[nH]c1=O [Compound I-91] | 1000 to 10000 nM | 100 to 1000 nM |
| COc1ncccc1-c1ccnc(N[C@@H](C)c2cc3cc(Cl)ccc3[nH]c2=O)n1 [Compound I-93] | > 10000 nM | 1000 to 10000 nM |
| COc1cnccc1-c1ccnc(N[C@@H](C)c2cc3cc(Cl)ccc3[nH]c2=O)n1 [Compound I-97] | 1000 to 10000 nM | 1000 to 10000 nM |
| CC(C)[C@H]1COCCN1c1ccnc(N[C@@H](C)c2cc3cc(Cl)ccc3[nH]c2=O)n1 [Compound I-104, 6-chloro-3-((S)-1-(4-((S)-3-isopropylmorpholino)pyrimidin-2-ylamino)ethyl) quinolin-2(1H)-one] | 1000 to 10000 nM | 100 to 1000 nM |
| CC(c1ccnc(N[C@@H](C)c2cc3cc(Cl)ccc3[nH]c2=O)n1)S(C)(=O)=O (stereo partly drawn) [Compound I-135, 6-Chloro-3-((1S)-1-((4-(1-(methylsulfonyl)ethyl)pyrimidin-2-yl)amino)ethyl) quinolin-2(1H)-one] | > 10000 nM | 1000 to 10000 nM |
| COc1cc(OC)nc(NCc2cc3cc(Cl)ccc3[nH]c2=O)n1 [Compound I-163, 6-Chloro-3-(((4,6-dimethoxypyrimidin-2-yl)amino)methyl)quinolin-2(1H)-one] |  | 1000 to 10000 nM |

Results, then the compound that gave them:

| IC50 [1] | IC50 [2] | SMILES |
| --- | --- | --- |
| > 10000 nM | > 10000 nM | C[C@H](Nc1nccc(-c2cccc3c2OCC3)n1)c1cc2cc(Cl)ccc2[nH]c1=O [Compound I-98] |
| 100 to 1000 nM | 100 to 1000 nM | COc1ccncc1-c1ccnc(N[C@@H](C)c2cc3cc(Cl)ccc3[nH]c2=O)n1 [Compound I-99] |
| 1000 to 10000 nM | 100 to 1000 nM | COCc1ccccc1-c1ccnc(N[C@@H](C)c2cc3cc(Cl)ccc3[nH]c2=O)n1 [Compound I-100] |
| 1000 to 10000 nM | 1000 to 10000 nM | COc1ccccc1-c1ccnc(N[C@@H](C)c2cc3cc(Cl)ccc3[nH]c2=O)n1 [Compound I-102] |
| 100 to 1000 nM | < 100 nM | C[C@H](Nc1nccc([S+](C)[O-])n1)c1cc2cc(Cl)ccc2[nH]c1=O (stereo partly shown) [Compound I-111] |
| 1000 to 10000 nM | 100 to 1000 nM | CC(C)NC(=O)c1ccnc(N[C@@H](C)c2cc3cc(Cl)ccc3[nH]c2=O)n1 [Compound I-117] |
| 100 to 1000 nM | 100 to 1000 nM | CC(C)CS(=O)(=O)Cc1ccnc(N[C@@H](C)c2cc3cc(Cl)ccc3[nH]c2=O)n1 [Compound I-121, (S)-6-Chloro-3-(1-(4-(isobutylsulfonylmethyl)pyrimidin-2-ylamino)ethyl)quinolin-2(1H)-one] |
| 1000 to 10000 nM | 100 to 1000 nM | C[C@H](Nc1nccc(CS(C)(=O)=O)n1)c1cc2cc(Cl)ccc2[nH]c1=O [Compound I-133] |
|  | 100 to 1000 nM | C[C@H](Nc1nccc(C2(S(C)(=O)=O)CC2)n1)c1cc2cc(Cl)ccc2[nH]c1=O [Compound I-136, (S)-6-Chloro-3-(1-(4-(1-(methylsulfonyl)cyclopropyl)pyrimidin-2-ylamino)ethyl)quinolin-2(1H)-one] |
|  | 1000 to 10000 nM | CC(=O)N(Cc1ccnc(N[C@@H](C)c2cc3cc(Cl)ccc3[nH]c2=O)n1)C1CC1 [Compound I-137, (S)—N-((2-((1-(6-chloro-2-oxo-1,2-dihydroquinolin-3-yl)ethyl)amino)pyrimidin-4-yl)methyl)-N-cyclopropylacetamide] |
|  | 1000 to 10000 nM | C[C@H](Nc1nccc(N)n1)c1cc2cc(Cl)ccc2[nH]c1=O [Compound I-139] |
|  | > 10000 nM | C[C@@H](Nc1nccc(N2CCCOC2=O)n1)c1cc2cc(Cl)ccc2[nH]c1=O [Compound I-140] |
|  | > 10000 nM | COc1cc2[nH]c(=O)c([C@@H](C)Nc3nccc(N4CCOC4=O)n3)cc2cc1Cl [Compound I-148] |
|  | > 10000 nM | CC(C)N(c1ccnc(NCc2cc3ccccc3[nH]c2=O)n1)S(C)(=O)=O [Compound I-164, N-isopropyl-N-(2-(((2-oxo-1,2-dihydroquinolin-3-yl)methyl)amino)pyrimidin-4-yl)methanesulfonamide] |
|  | 1000 to 10000 nM | CC(C)N(c1ccnc(NCc2cc3ccc(F)cc3[nH]c2=O)n1)S(C)(=O)=O [Compound I-165] |
|  | 1000 to 10000 nM | Cc1ccc2[nH]c(=O)c(CNc3nccc(N(C(C)C)S(C)(=O)=O)n3)cc2c1 [Compound I-166] |
|  | > 10000 nM | O=C1OCCN1c1ccnc(NC(CF)c2cc3cc(Cl)ccc3[nH]c2=O)n1 (stereo not shown) [Compound I-171] |
